{C12NH2} = amino-(CH2)12 linker attached through a phosphate; {C12NH2-P} = aminododecyl phosphate linker; {FITC} = fluorescein isothiocyanate label
How the values were obtained:
HepG2 cells [1] = assay: Transmembrane transfer of DNA/RNA fragments and drug-delivery precursors into HepG2 cells, laser confocal microscope; assay type: cell-based; details: 4 nmol, X-tremeGENEsiRNA transfection reagent, 6 h, laser confocal microscope (FIG. 11)
Description: 24 h before transfer, the HepG2 cells in the phase of logarithmic growth were digested with trypsin; a culture medium containing 10% serum was used for adjusting the cell density to 0.5×10^6 cells/mL; and the cells were inoculated again in a cell culture dish of 15 cm and cultured in a culture incubator containing 5% CO2 at 37° C. The cells may be used for experiments when the cell density reaches 60% to 70% 24 h later.
4 nmol of the above-mentioned single-stranded or double-stranded DNA/RNA fragments in different sequences and various drug-delivery precursors was added to a sterile centrifuge tube (tube A) of 15 mL, respectively, and uniformly mixed with Opti-MEM in a corresponding volume, with a total volume of 2 mL; the X-tremeGENEsiRNA reagent was shaken gently, and 160 μL of X-tremeGENEsiRNA reagent was mixed with 1.84 mL of Opti-MEM in another tube (tube B); and the solution in the tube A was mixed with the solution in the tube B, the mixture was slightly triturated by a pipette and incubated for 20 min at room temperature.
6 mL of RPMI-1640 serum-free culture medium was added to the mixture and mixed uniformly; the primary culture medium in the HepG2 cell culture dish was discarded, and slightly triturated with RPMI-1640 serum-free culture medium once; and then, the mixture was moved into the HepG2-PT cell culture dish, and cultured in a culture incubator containing 5% CO2 at 37° C.

HepG2 cells [2] = details: original compound 2 linked to the fluorescent tag (FIG. 8A)
Description: 24 h before transfer, the HepG2 cells in the phase of logarithmic growth were digested with trypsin; a culture medium containing 10% serum was used for adjusting the cell density to 1.0×10^7cells/20 mL; and the cells were inoculated again in a cell culture dish of 15 cm and cultured in a culture incubator containing 5% CO2 at 37° C. The cells may be used for experiments when the cell density reaches 60% to 70% 24 h later.
6 mL of RPMI-1640 serum-free culture medium was added to the mixture and mixed uniformly; the primary culture medium in the HepG2 cell culture dish was discarded, and slightly triturated with. RPMI-1640 serum-free culture medium once; and then, the mixture was moved into the HepG2-PT cell culture dish, and cultured in a culture incubator containing 5% CO2 at 37° C.

Compound	transfer into cells and positioning in the cells (HepG2 cells [1])	entry into cells (HepG2 cells [2])
5′-NH2—(CH2)12—PO4TGGGCTGGCCAAACTGCTG-3′-FITC: 5′-CAGCAGTTTGGCCAGCCCA-3′ (chain 1: DNA, 5' {C12NH2-P}, 3' {FITC}, backbone not given here; chain 2: DNA, backbone not given here)	may be all transferred into cells by X-tremesiRNA, with most of them into the cytoplasm and a few of them into the cell nucleus	–
5′-NH2—(CH2)12—PO4-A38-3′-FITC [polyA of 38 bp]	may be all transferred into cells by X-tremesiRNA, with most of them into the cytoplasm and a few of them into the cell nucleus	–
5′-NH2—(CH2)12—PO4-A5-3′-FITC [polyA of 5 bp]	may be all transferred into cells by X-tremesiRNA, with most of them into the cytoplasm and a few of them into the cell nucleus	–
5′-NH2—(CH2)2—PO4-A19-3′-FITC [polyA of 19 bp]	may be all transferred into cells by X-tremesiRNA, with most of them into the cytoplasm and a few of them into the cell nucleus	–
5-NH2—(CH2)12—PO4-TGGGCTGGCCAAACTGCTG-3′-FITC (DNA, 5' {C12NH2}, 3' {FITC}, backbone not given here)	may be all transferred into cells by X-tremesiRNA, with most of them into the cytoplasm and a few of them into the cell nucleus	–
C#CCN(CC1CCN(C(=O)Nc2ccccc2)CC1)c1cccc(-c2sc(C(=O)O)c(OCC(=O)O)c2Br)c1 [compound 2, 4-bromo-3-oxoacetic acid-5-(3-(((1-phenylcarbamoylpiperidine)-4-methyl)-N-propargylamine)phenyl)thiophene-2-formic acid]	–	can not enter the cells
